Experimental data as given in patent publication US9211283B2, “Nanoparticle carrier systems based on human serum albumin for photodynamic therapy” (Biolitec Pharma Marketing Ltd, priority 2009, dated 2015).

What was measured:
Jurkat cells = assay: Dark toxicity (trypan blue test, apoptotic blebbing); type: cell-based; details: 3 μM mTHPC, 1 h, 3 h, 5 h and 24 h incubation in darkness, FIG. 6A
Protocol: Intracellular uptake and phototoxicity of the present nanoparticles formulation was studied using Jurkat-cell suspensions cultured in RPMI1640 medium. All cells were incubated in 3 μM mTHPC and mTHPC loaded into different concentration of HSA based nanoparticles for set period of time (1 h, 3 h, 5 h, 24 h). The HSA-based nanoparticles of varying HSA concentration was used to determine the intracellular uptake and phototoxicity effect of the cells suspension.
Trypan blue test was used to assess the necrotic cells, apoptotic cells were detected by their change of cell shape (apoptotic blebbing).
In each case Jurkat cells were incubated in five samples. After 1 h, 3 h, 5 h. and 24 h incubation in darkness an aliquot of each sample was investigated. Trypan blue test was used to assess the necrotic cells, apoptotic cells were detected by their change of cell shape (apoptotic blebbing). Little or no effect was found. In other words dark toxicity was not observed for the mTHPC concentrations used.

[1] = Singlet oxygen generation and triplet parameters; type: physicochemical; details: in ethanol
Fluorescence lifetime = type: physicochemical

Oc1cccc(-c2c3nc(c(-c4cccc(O)c4)c4ccc([nH]4)c(-c4cccc(O)c4)c4nc(c(-c5cccc(O)c5)c5ccc2[nH]5)CC4)C=C3)c1 [mTHPC, 5,10,15,20-tetrakis(3-hydroxyphenyl)-chlorin]
Dark toxicity (Jurkat cells): not observed

O=C([O-])c1c(Cl)c(Cl)c(Cl)c(Cl)c1-c1c2cc(I)c(=O)c(I)c-2oc2c(I)c([O-])c(I)cc12.[Na+].[Na+] [Rose Bengal]
ΦΔ (±0.03) (singlet oxygen quantum yield) [1]: 0.75 | τT (lifetime of triplet state) [1]: 3.3 ± 0.1 μs | τΔ (lifetime of singlet oxygen) [1]: 64.1 ± 0.2 μs

Oc1cccc(-c2c3nc(c(-c4cccc(O)c4)c4ccc([nH]4)c(-c4cccc(O)c4)c4nc(c(-c5cccc(O)c5)c5ccc2[nH]5)C=C4)C=C3)c1 [mTHPP, 5,10,15,20-tetrakis(m-hydroxyphenyl)-porphyrin]
τ3 [ns] ± 0.2 (Fluorescence lifetime; fluorescence lifetime, in EtOH (monomers)): 9.6 ns | Amplitude [%] of τ3 (Fluorescence lifetime; in EtOH): 100%
